Counter-ions that a name gives are not always drawn.
How the values were obtained:
oral mucosa [1] = assay: Visual assessment of oral mucosa delivery sites for damage or irritation after needleless syringe delivery; type: in vivo, human; details: single 3 mg dose, particles 38-53 μm, 14 subjects, 24-48 hours after delivery
Experimental: A randomized, double-blind, negatively controlled study was carried out in normal, healthy human subjects as follows. Initially, a single 3 mg dose of lignocaine HCL particles sized between 38 and 53 μm was delivered from a needleless syringe constructed in accordance with the invention. The lignocaine was delivered to the oral mucosa adjacent to the number 12 and 22 lateral incisors in 14 trial subjects. The delivery sites were then visually assessed for evidence of damage or irritation to the mucosal tissues.

[2] = in vivo
Experimental: In a second study, a single 3.0 mg dose of lignocaine HCL particles (as above) was delivered using a needleless syringe, and a single 0.2 mL dose of 2% lignocaine HCL was delivered via needle-syringe injection. Pain associated with the administration of each treatment was scored in all 14 subjects using a 100 mm visual analogue scale immediately after each treatment, wherein 100% indicates a painful treatment, and 0% indicates a pain-free treatment. The needleless syringe employed in the study was operated using 40 bar helium driving gas to expel anaesthetic particles from a flexible, eversible dome-shaped membrane comprised of a 400 μm, 6 mm polyurethane film.

oral mucosa [3] = assay: Local anaesthesia: pain response to probing oral mucosa with back of 27G dental needle, visual analogue scale; type: in vivo, human; details: 3.0 mg particles via needleless syringe; probe of treated area 1 minute post delivery; untreated 55.6%, placebo 30.6%
Experimental: A randomized, double-blind study was then carried out as follows. Treatments were given to 14 subjects over the course of three visits. The treatments provided to the subjects in each visit were either a single 3.0 mg dose of Lignocaine HCL particles from the above-described needleless syringe device, or 0.0 mg (as a blinded negative control). Accordingly, treatments provided over the course of the three visits were either: two actual (3.0 mg) doses of the anaesthetic particles and one placebo; or two placebos and one actual (3.0 mg) dose. Pain stimulus was provided by probing oral mucosa with the back of a 27G dental needle, wherein the probe sequence was a probe on an untreated area of the mucosa, and then a probe on the treated area of the mucosa 1 minute post delivery. Again, the pain associated with the probe of the untreated and treated areas was scored on visual analogue scales using the above scoring methods immediately after each probe.

[4] = Serum testosterone pharmacokinetics after subcutaneous or OralJect transmucosal delivery (radioimmunoassay); type: in vivo, New Zealand White rabbit; details: for Cmax: mean
Experimental: Testosterone (Sigma Chemicals) was milled and sieved into a particle size range (approximately 50-100 μm) suitable for transmucosal delivery from a needleless syringe using standard stainless steel mesh sieves. Female New Zealand White rabbit subjects weighing between 2.2-2.8 kg were used and allowed food and water ad libitum. The rabbits (n=8) were randomly assigned to one of two treatment groups. The first treatment group received testosterone (2.0 mg dose) as a suspension in 35% polyvinylpyrrolidone C-30 in water (6 mg/g testosterone concentration) via subcutaneous injection. The second treatment group received testosterone (2.0 mg dose of testosterone particles ranging from 53-75 μm) as two 1.0 mg transmucosal administrations from an OralJect™ needleless syringe device abutted against the cheek mucosa.
Whole blood (1.0 ml) was taken at times 0, 0.5, 1, 2, 4, 6, 8, 12, 24 and 48 hours, the serum aspirated and assayed for testosterone by radioimmunoassay (DPC). The OralJect™ device is a prototype device of the present invention that is actuated by helium at 40 bar.

[5] = oral administration, degraded by the liver; cited from earlier work

SMILES	tissue reaction at delivery sites (oral mucosa [1])	pain associated with administration, mean visual analogue score [2]	mean pain response score to probe (oral mucosa [3])	Cmax ([4]; OralJect transmucosal (cheek mucosa), 2 x 1.0 mg particles 53-75 μm, rabbit serum)	second minor peak of serum testosterone, time post administration ([4]; OralJect transmucosal, possible depot effect)	bioavailability ([4]; female, New Zealand White, rabbit, serum, 2 mg, OralJect transmucosal, 2.0 mg, rabbit, read-out: % BA (% bioavailability))	Tmax ([4]; female, New Zealand White, rabbit, serum, OralJect transmucosal, 2.0 mg, all animals)	Cmax ([4]; subcutaneous injection, 2.0 mg suspension in 35% polyvinylpyrrolidone C-30, rabbit serum)	Cmax range ([4]; subcutaneous injection, 2.0 mg, rabbit serum)	first pass degradation [5]
CCN(CC)CC(=O)Nc1c(C)cccc1C [lignocaine HCL]	no evidence of any tissue reaction	49.9%	15.0%							
C[C@]12CC[C@H]3[C@@H](CCC4=CC(=O)CC[C@@]43C)[C@@H]1CC[C@@H]2O [testosterone, Testosterone]				25.5 ± 3.5 nmol/I	12 h	~48.3%	30 min	34.8 ± 6.9 nmol/I	26.9 − 55.2 nmol/I	98%

From patent US6592545B1, “Particle delivery” (PowderJect Research Limited, priority 1994, dated 2003)
